In general, IC50 refers to the concentration that gives 50% inhibition.

The source of these data is publication PMC5926292 (Japanese Journal of Cancer Research : Gann, 2000).

≈ marks a conversion by molar mass, not a printed value.

Among the test systems are BFU-E; CFU-GM; CFU-Mix.
What all share (test): Colony assay of hematopoietic progenitors
What all share (assay type): cell-based
What all share (details): Homo sapiens, read-out: IC50 for colony formation

For `C/C=C1\NC(=O)[C@H]2CSSCC/C=C/[C@H](CC(=O)N[C@H](C(C)C)C(=O)N2)OC(=O)[C@H](C(C)C)NC1=O` [FK228], the figures for the half-maximal inhibitory concentration (IC50) with BFU-E, in the experiment with CFU-GM and with CFU-Mix were 3.1 ng/mL (≈ 5.73 nM), 4.4 ng/mL (≈ 8.14 nM) and 7.8 ng/mL (≈ 14.4 nM), respectively.
